# Experiments:
# [1] = Pressure (mechanical) stability, XRPD; format: physicochemical; details: 350 MPa
# Procedure: (§1) • Instrument model: PANalytacal X-ray Powder Diffractometer • Test method: Approximately 10 to 20 mg of the sample is used for XRPD detection.
# (§2) The detailed XRPD parameters are as follows: • X-ray tube: Cu, kα, (λ=1.540598 Å, λ=1.544426 Å). • X-ray tube voltage: 45 kV, X-ray tube current: 40 mA • Divergence slit: ⅛° • Scan mode: continuous • Scanning range (°2Theta): 3-40 • Scanning time per step (s): 46.7 • Scanning step size (°2Theta): […] • Test duration: approximately 5 min
# The sample in the mold was compressed under a pressure of 350 MPa. The solid was collected for XRPD characterization.
# [2] = Hygroscopicity study by dynamic vapor sorption (DVS); format: physicochemical
# Procedure: • Instrument model: DVS Intrinsic Plus Dynamic Vapor Sorption Analyzer from SMS (Surface Measurement Systems) • Test conditions: The sample (10 to 20 mg) is placed in a DVS sample pan for testing.
# The detailed DVS parameters are as follows: • Temperature: 25° C. • Equilibrium: dm/dt=0.002%/min (minimum: 10 min, maximum: 180 min) • Drying: 120 min at 0% RH • RH (%) test steps: 10% • RH (%) test step range: 0%-95%-0%
# The hygroscopicity evaluation is classified as follows:
# • DVS Intrinsic Plus Dynamic Vapor Sorption Analyzer from SMS (Surface Measurement Systems).
# [3] = Pharmacokinetic evaluation in beagle dogs; format: in vivo; details: Intragastric administration, 5 mg/kg, listed as Crystal Form A of Compound of Formula (I)
# Text: Male beagle dogs were selected as the experimental animals in this study. The LC/MS/MS method was employed to quantitatively determine the plasma drug concentrations at different time points after intravenous injection or intragastric administration of the test compound, aiming to evaluate the pharmacokinetic characteristics of the compound of the present disclosure in beagle dogs.
# Beagle dogs (male, 7 to 10 kg, Beijing Mars Biotechnology Co., Ltd.).
# A solution of the test compound was slowly injected intravenously into beagle dogs (fed) via the peripheral vein (vehicle: 5% DMSO/10% Solutol/85% H2O), or administered intragastrically to beagle dogs (fed). For intravenous administration, 0.5 mL of blood was collected from the peripheral vein at 0.083, 0.25, 0.5, 1, 2, 4, 6, 8, and 24 h after administration, placed in EDTA-2K anticoagulant tubes, and centrifuged at 3200 g for 10 minutes at 2 to 8° C. to separate the supernatant. For intragastric administration, 0.5 mL of blood was collected from the peripheral vein at 0.083, 0.25, 0.5, 1, 2, 4, 6, 8, and 24 h after administration, placed in EDTA-2K anticoagulant tubes, and centrifuged at 3200 g for 10 minutes at 2 to 8° C. to separate the supernatant. Plasma drug concentrations were determined by the LC-MS/MS method, and relevant pharmacokinetic parameters were calculated using Phoenix WinNonlin 6.3 or 8.3.5 pharmacokinetic software with non-compartmental model linear-log trapezoidal method.
# [4] = Solid stability test under high temperature, high humidity and strong light exposure; format: physicochemical
# Procedure: Samples placed under high-temperature conditions were examined in an electric blast drying oven, while samples placed under high-humidity conditions were examined in a comprehensive drug stability test chamber. Sampling and testing were conducted on the 5th, 10th, and 30th days, and the test results were compared with the initial test results on day 0. Samples placed under strong light exposure conditions were left open, and sampling and testing were performed on the 5th and 10th days, with the test results compared to the initial test results on day 0.
# [5] = Stability in solvents: suspension stirring at room temperature, XRPD; format: physicochemical; details: acetone, tetrahydrofuran, 1,4-dioxane, methanol, ethanol, isopropanol, water and mixed solvents with water
# Procedure: as §1, §2
# The resulting suspensions were magnetically stirred at room temperature (1000 rpm) for 3 days, then centrifuged to collect the solids, which were subjected to XRPD testing.
# [6] = Solid stability test under long-term conditions; format: physicochemical
# Text: Samples were taken for testing at the 1st and 2nd months, and the test results were compared with the initial test results at day 0.
# [7] = Stability in solvents: anti-solvent addition, XRPD; format: physicochemical; details: anti-solvent Water
# Procedure: as §1, §2
# While stirring (1000 rpm), the anti-solvent listed in the table below was added dropwise to the clear solution until solids precipitated, or until the total volume of anti-solvent reached 10 mL. Samples without precipitation were stirred in suspension at 5° C., while clear samples were transferred to −20° C. for suspension stirring. If still clear, the samples were transferred to room temperature for volatilization. The precipitated solids were isolated and subjected to XRPD testing.
# [8] = Solid stability test under accelerated conditions; format: physicochemical
# Text: Samples were taken for testing at the 1st, 2nd, and 3rd months, and the test results were compared with the initial test results at day 0.
# [9] = High Humidity (Room Temperature/Relative Humidity: 92.5%, Open), Day 5
# [10] = High Humidity (Room Temperature/Relative Humidity: 92.5%, Open), Day 10
# [11] = High Temperature (60° C., Open), Day 5
# [12] = High Temperature (60° C., Open), Day 10
# [13] = Strong Light Exposure (5000 ± 500 Lux, 90 μw/cm^2, Open), Day 10
# [14] = Strong Light Exposure test, Day 10 (Light Exposure Control)
# [15] = 25° C./60% Relative Humidity, Sealed + Desiccant, 1 month
# [16] = 25° C./60% Relative Humidity, Sealed + Desiccant, 2 month
# [17] = 40° C./75% Relative Humidity, Sealed + Desiccant, 1 month
# [18] = 40° C./75% Relative Humidity, Sealed + Desiccant, 2 month
# [19] = 40° C./75% Relative Humidity, Sealed + Desiccant, 3 month
structure (smiles),measurement,setting,value
O=C1CCC(c2noc3ccc4c(NC(=O)CN5CCN(C[C@H]6CC[C@H](n7cc(NC(=O)c8coc(-c9ccnc(NCC%10CC%10)c9)n8)c(C(F)F)n7)CC6)CC5)cccc4c23)C(=O)N1 (stereo partly shown),stability under compression mold pressure (conclusion),[1],good stability
same,crystal form before and after DVS,[2],no change in crystal form
same,ΔW (hygroscopic weight gain),"[2]; DVS, 25° C. and 80% RH",3.536%
same,Area Under the Drug-Time Curve (0-inf),[3],8.18 µM·h
same,Peak Concentration,[3],0.70 µM
same,Time to Peak Concentration,[3],5.00 h
same,Content,[4]; Day 0,100.0%
same,Total Impurities,[4]; Day 0,2.4%
same,Content,[4]; [9],99.7%
same,Total Impurities,[4]; [9],2.4%
same,Content,[4]; [10],100.1%
same,Total Impurities,[4]; [10],2.5%
same,Content,[4]; [11],102.8%
same,Total Impurities,[4]; [11],2.5%
same,Content,[4]; [12],102.5%
same,Total Impurities,[4]; [12],2.5%
same,Content,[4]; [13],102.3%
same,Total Impurities,[4]; [13],2.6%
same,Content,[4]; [14],101.5%
same,Total Impurities,[4]; [14],2.4%
same,stability (conclusion),"[4]; high temperature, high humidity, and strong light exposure conditions",good stability
same,stability in solvents (conclusion),[5],good stability
same,Content,[6]; [15],99.5%
same,Total Impurities,[6]; [15],2.8%
same,Content,[6]; [16],99.2%
same,Total Impurities,[6]; [16],2.9%
same,Content,[6]; Day 0,100.0%
same,Total Impurities,[6]; Day 0,2.4%
same,stability (conclusion),[6]; long-term conditions of 25° C./60% relative humidity,good stability
same,XRPD Results Anti-Solvent Addition,[7]; solvent Dimethyl sulfoxide,Amorphous
same,XRPD Results Anti-Solvent Addition,[7]; solvent N-Methylpyrrolidone,Amorphous
same,Content,[8]; [17],99.3%
same,Total Impurities,[8]; [17],2.7%
same,Content,[8]; [18],99.5%
same,Total Impurities,[8]; [18],2.7%
same,Content,[8]; [19],99.1%
same,Total Impurities,[8]; [19],2.7%
same,Content,[8]; Day 0,100.0%
same,Total Impurities,[8]; Day 0,2.4%
same,stability (conclusion),[8]; accelerated conditions of 40° C./75% relative humidity,good stability

# Source: patent US20260265239A1, “CRYSTAL FORM OF 2,6-PIPERIDINEDIONE COMPOUND, AND PREPARATION METHOD THEREFOR AND USE THEREOF” (ZHANGZHOU PIEN TZE HUANG PHARMACEUTICAL CO., LTD., priority 2023, published 2026)
